For data set [1], the target named is Adenosine receptor A2a (Homo sapiens, UniProt P29274). The data set is described as follows: Displacement of [3H]SCH58261 from human recombinant A2A receptor expressed in HEK293 cells. Type of data set: cell-based. (In general: In a radioligand displacement assay an active substance lowers the binding of a labelled ligand.)
Data set [2] can be described thus: Selectivity for human adenosine A2A receptor over adenosine A1 receptor.
Data set [3] is described as follows: Metabolic stability in rat liver microsomes assessed as compound remaining after 30 mins. Type of data set: ADME, Microsome. As to conditions: read-out: Stability. Background: Microsomes from liver hold many membrane-bound enzymes, among them those of drug oxidation.
Data set [4] can be described thus: Metabolic stability in human liver microsomes assessed as compound remaining after 30 mins. The data set is classed as ADME, Microsome. To be noted: read-out: Stability.
The target of data set [5] is Adenosine receptor A2a (Rattus norvegicus, UniProt P30543). Kind of data set: Antagonist activity at rat A2A receptor by cAMP functional assay.
Adenosine receptor A2a (Rattus norvegicus, UniProt P30543), sequence (P30543 whole entry): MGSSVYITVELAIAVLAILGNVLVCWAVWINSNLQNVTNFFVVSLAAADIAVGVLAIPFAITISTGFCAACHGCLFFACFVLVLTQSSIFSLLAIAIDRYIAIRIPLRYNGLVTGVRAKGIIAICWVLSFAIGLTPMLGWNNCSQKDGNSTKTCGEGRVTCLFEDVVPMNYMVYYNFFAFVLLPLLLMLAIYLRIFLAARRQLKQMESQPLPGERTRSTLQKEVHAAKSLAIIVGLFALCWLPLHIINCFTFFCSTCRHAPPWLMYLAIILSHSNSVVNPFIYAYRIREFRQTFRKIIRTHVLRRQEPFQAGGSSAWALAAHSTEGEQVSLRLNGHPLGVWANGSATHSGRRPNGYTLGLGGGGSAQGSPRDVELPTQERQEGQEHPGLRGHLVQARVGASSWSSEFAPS
A short description of data set [6]: Plasma concentration in rat at 30 mg/kg, po after 1 hr. Type of data set: ADME, organism-based. Set-up: dose 30 mg/kg, route oral.
The nature of data set [7]: Plasma concentration in rat at 30 mg/kg, po after 4 hrs. Set-up: dose 30 mg/kg, route oral. The data set is classed as ADME, organism-based.
Data set [8] is described as follows: Drug level in rat brain at 30 mg/kg, po after 1 hr. Type of data set: ADME, organism-based. Set-up: dose 30 mg/kg, route oral. To be noted: read-out: Drug uptake.
Data set [9] is described as follows: Drug level in rat brain at 30 mg/kg, po after 4 hrs. The data set is classed as ADME, organism-based. More on the design: dose 30 mg/kg, route oral. As to conditions: read-out: Drug uptake.
Data set [10] can be described thus: Ratio of drug level in brain to plasma of rat at 30 mg/kg, po after 1 hr. Type of data set: ADME, organism-based. Set-up: dose 30 mg/kg, route oral. To be noted: read-out: BPR.
Data set [11] is described as follows: Ratio of drug level in brain to plasma of rat at 30 mg/kg, po after 4 hrs. As to conditions: read-out: BPR. Set-up: dose 30 mg/kg, route oral. Type of data set: ADME, organism-based.

Adenosine receptor A2a (Homo sapiens, UniProt P29274), sequence (P29274 whole entry): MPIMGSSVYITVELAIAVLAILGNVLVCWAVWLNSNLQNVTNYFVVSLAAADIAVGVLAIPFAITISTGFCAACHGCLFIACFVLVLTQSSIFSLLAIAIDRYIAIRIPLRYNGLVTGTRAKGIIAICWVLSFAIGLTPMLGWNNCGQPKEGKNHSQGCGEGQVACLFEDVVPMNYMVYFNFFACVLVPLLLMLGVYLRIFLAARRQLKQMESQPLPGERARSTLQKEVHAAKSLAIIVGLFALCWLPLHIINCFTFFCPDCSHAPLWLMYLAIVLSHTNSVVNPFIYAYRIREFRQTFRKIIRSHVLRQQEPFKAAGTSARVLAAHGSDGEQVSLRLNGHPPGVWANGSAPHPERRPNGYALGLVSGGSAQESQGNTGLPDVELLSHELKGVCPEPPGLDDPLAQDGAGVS

The term Ki denotes a dissociation constant, usually derived from enzyme kinetics or from competition with a known ligand. As to `CCOCCCn1c(NC(=O)c2cccc(C#N)c2)nc2cc(C(=O)N3CCOCC3)cnc21`, the Ki in data set [1] amounted to 1100 nM. In addition, the Ratio in data set [2] was determined as 9.
On to `CC(C)OCCCn1c(NC(=O)c2cccc(C#N)c2)nc2cc(C(=O)N3CCOCC3)cnc21`, for which the Ki in [1] is above 10000 nM.
For the compound `CCN(C)C(=O)c1ccc2nc(NC(=O)c3cccc(C#N)c3)n(CCCOC)c2n1`, the Ki worked out at 12 nM in data set [1] and 23 nM in data set [5]. Besides, the remaining at 0.5 h in [3] and in [4] was 52% each time. Also, the Ratio in data set [2] was found to be 80. Besides, the figures for the concentration at 1 h in data set [6] and in [8] were 4630 ng/mL and 1050 ng/g, respectively. For the same compound, the concentration at 4 h was 2380 ng/mL in [7] and 450 ng/g in data set [9]. Besides, the Kp at 1 h in data set [10] is 0.23. Moreover, in [11], the Kp at 4 h came to 0.19.
As to `COc1cccc(-n2c(NC(=O)c3cccc(C#N)c3)nc3cc(C(=O)N4CCCCC4)cnc32)c1`, the Ki in [1] came out at 325 nM. The Ratio in data set [2] is 2.
On to `CCOCCn1c(NC(=O)c2cccc(C#N)c2)nc2cc(C(=O)N3CCOCC3)cnc21`, for which the Ki in data set [1] was found to be 3300 nM. The Ratio in data set [2] is 1.8.
As for `COCCCn1c(NC(=O)c2cccc(C(F)(F)F)c2)nc2cc(C(=O)NCc3cccc(OC)c3)ccc21`, the Ki in data set [1] is above 10000 nM.
As for `N#Cc1cccc(C(=O)Nc2nc3cc(C(=O)N4CCCCC4)cnc3n2CCCO)c1`, the Ki in [1] worked out at 51 nM. Further, in data set [2], the Ratio is 10.
Turning to `COCCCn1c(NC(=O)c2cccc(C#N)c2)nc2cc(C(N)=O)cnc21`, the Ki in data set [1] worked out at 2430 nM.
As to `COc1ccc(Cn2c(NC(=O)c3cccc(C#N)c3)nc3cc(C(=O)N4CCCCC4)cnc32)cc1`, in [1], the Ki was found to be 1220 nM. Besides, in data set [2], the Ratio came out at 7.
With `COCCCn1c(NC(=O)c2cccc(C#N)c2)nc2cc(C(=O)N(C)C(C)C)cnc21`, the Ki in [1] stood at 13 nM; in [5], 12 nM.
In the case of `COCCCn1c(NC(=O)c2cccc(C#N)c2)nc2cc(C(=O)NCc3cccc(OC)c3)ccc21`, the Ki in data set [1] worked out at 46 nM.
Take `CCCCNC(=O)c1cnc2c(c1)nc(NC(=O)c1cccc(C#N)c1)n2CCCOC`: the Ki in data set [1] was 40 nM. Further, the remaining at 0.5 h came out at 73% in data set [3] and 95% in data set [4].
For `CCCCCn1c(NC(=O)c2cccc(C#N)c2)nc2cc(C(=O)N3CCCCC3)cnc21`, the Ki in data set [1] is 904 nM. For the same compound, the Ratio in data set [2] is 3.
Regarding `Cn1c(NC(=O)c2cccc(C#N)c2)nc2cc(C(=O)N3CCCCC3)cnc21`, the inhibition constant Ki in [1] was determined as 147 nM. Further, the Ratio in [2] turned out to be 22.
The like results for `COCCCn1c(NC(=O)c2cccc(C#N)c2)nc2cc(C(=O)N3CCOCC3)cnc21` were, in that order, 92 nM and 61.
As to `COCCCn1c(NC(=O)c2ccc(C#N)cc2)nc2cc(C(=O)NCc3cccc(OC)c3)ccc21`, the Ki in data set [1] is 1670 nM.
As for `CC(=O)NCCn1c(NC(=O)c2cccc(C#N)c2)nc2cc(C(=O)N3CCCCC3)cnc21`, the Ki in data set [1] worked out at 37 nM. Further, the Ratio in data set [2] is above 46.
For the compound `COCCCn1c(NC(=O)c2cccc(F)c2)nc2cc(C(=O)NCc3cccc(OC)c3)ccc21`, the Ki in data set [1] came out at 210 nM.
Consider `COCCCn1c(N)nc2cc(C(=O)NCc3cccc(OC)c3)ccc21`, for which the Ki in data set [1] is 6770 nM.
The same measure, in the same setting: then `COCCCn1c(NC(=O)c2cccc(OC)c2)nc2cc(C(=O)NCc3cccc(OC)c3)ccc21`, with 2380 nM.
Regarding `COCCCn1c(NC(=O)c2cccc(C#N)c2)nc2ccc(C(=O)N3CCCCC3)cc21`, the figures for the inhibition constant Ki in data set [1] and in data set [5] were 17 nM and 85 nM, respectively. Further, the figures for the remaining at 0.5 h in [3] and in [4] were 12% and 19%, respectively. In addition, in [2], the Ratio turned out to be 131.
`COCCCn1c(NC(=O)c2cccc(C#N)c2)nc2cc(C(=O)N(C)C)cnc21`: the Ki in data set [1] was 123 nM.
On to `N#Cc1cccc(C(=O)Nc2nc3cc(C(=O)N4CCCCC4)cnc3n2Cc2cccnc2)c1`, for which, in data set [1], the Ki came to 233 nM. Besides, in [2], the Ratio came to 4.
Take `N#Cc1cccc(C(=O)Nc2nc3cc(C(=O)N4CCCCC4)cnc3n2C2CCOCC2)c1`: the Ki in data set [1] worked out at 179 nM. Further, the Ratio in data set [2] is 10.
Consider `CCCCNC(=O)c1ccc2c(c1)nc(NC(=O)c1cccc(C#N)c1)n2CCCOC`, for which the inhibitory constant (Ki) in [1] was found to be 48 nM. Moreover, the remaining at 0.5 h in [3] was 38%; in [4], 27%.
Take `COCCCn1c(NC(=O)c2cccc(C#N)c2)nc2ccc(C(=O)N(C)C(C)C)nc21`: the inhibition constant Ki in [1] stood at 2.5 nM; in data set [5], 4.3 nM. The figures for the remaining at 0.5 h in [3] and in data set [4] were 14% and 25%, respectively. The Ratio in data set [2] was 88.
As for `CCN(CC)C(=O)c1cnc2c(c1)nc(NC(=O)c1cccc(C#N)c1)n2CCCOC`, the results for the Ki in data set [1] and in data set [5] were 16 nM and 59 nM, respectively.
In the case of `N#Cc1cccc(C(=O)Nc2nc3cc(C(=O)N4CCCCC4)cnc3n2Cc2ccc(F)cc2)c1`, in data set [1], the Ki came out at 2590 nM. The Ratio in data set [2] came to 3.
As to `CCN(CC)C(=O)c1ccc2nc(NC(=O)c3cccc(C#N)c3)n(CCCOC)c2c1`, the Ki in [1] stood at 3.1 nM; in data set [5], 16 nM. Moreover, the remaining at 0.5 h in [3] turned out to be 19%; in [4], 36%. Moreover, in [2], the Ratio turned out to be 183.
Consider `N#Cc1cccc(C(=O)Nc2nc3cc(C(=O)N4CCCCC4)cnc3n2Cc2ccncc2)c1`, for which the Ki in data set [1] stood at 39 nM. The Ratio in data set [2] is 39.
Take `COCCCn1c(NC(=O)c2cccc(C#N)c2)nc2cc(C(=O)N3CCCCC3)cnc21`: in data set [1], the Ki is 9.6 nM. Moreover, the remaining at 0.5 h in data set [3] was 36%; in [4] it was 90%.
As for `COCCCn1c(NC(=O)c2ccccc2Cl)nc2cc(C(=O)NCc3cccc(OC)c3)ccc21`, in [1], the Ki came out at 4710 nM.
On the same count and under the same terms, next, `COCCCn1c(NC(=O)c2cccc(Cl)c2)nc2cc(C(=O)NCc3cccc(OC)c3)ccc21`: 439 nM.
In the case of `COCCCn1c(NC(=O)c2cccc(C#N)c2)nc2cc(C(=O)N3CCCCC3)ccc21`, in data set [1], the Ki was 48 nM. Moreover, the remaining at 0.5 h in data set [3] came to 16%; in data set [4] it was 67%.
Turning to `CCN(C)C(=O)c1cnc2c(c1)nc(NC(=O)c1cccc(C#N)c1)n2CCCOC`, the Ki in [1] amounted to 25 nM; in data set [5] it was 24 nM. Also, the concentration at 1 h stood at 4360 ng/mL in data set [6] and 480 ng/g in [8]. Also, the values for the concentration at 4 h in data set [7] and in data set [9] were 2290 ng/mL and 210 ng/g, respectively. For the same compound, in data set [10], the Kp at 1 h was 0.11. Further, the Kp at 4 h in data set [11] is 0.09.

For the origin of these results see ChEMBL document CHEMBL1268900, “Discovery of 2-aminoimidazopyridine adenosine A(2A) receptor antagonists” (Bioorg Med Chem Lett, 2010).
